Target: Tie2 (Homo sapiens, UniProt Q02763)
Assay: Tie-2-Kinase HTRF-Assay without kinase preactivation (assay 2)
Assay type: biochemical
Parameters: fusion protein of GST and the intracellular domains of Tie-2; GST; made in house; host or cells: insect cells (Hi-5)
Details: GST-Tie-2 without preactivation, 10 μM ATP; pIC50 = -log IC50 molar
Source text: Tie2-inhibitory activity of compounds of the present invention was quantified employing two Tie2 HTRF assay as described in the following paragraphs.
A recombinant fusion protein of GST and the intracellular domains of Tie-2, expressed in insect cells (Hi-5) and purified by Glutathion-Sepharose affinity chromatography was used as kinase. Alternatively, commercially available GST-Tie2-fusion protein (Upstate Biotechnology, Dundee, Scotland) can be used As substrate for the kinase reaction the biotinylated peptide biotin-Ahx-EPKDDAYPLYSDFG (C-terminus in amid form) was used which can be purchased e.g. from the company Biosynthan GmbH (Berlin-Buch, Germany). Detection of phosphorylated product is achieved specifically by a trimeric detection complex consisting of the phosphorylated substrate, streptavidin-XLent (SA-XLent) which binds to biotin, and Europium Cryptate-labeled anti-phosphotyrosine antibody PT66 which binds to phosphorylated tyrosine.
Tie-2 (3.5 ng/measurement point) was incubated for 60 min at 22° C. in the presence of 10 μM adenosine-tri-phosphate (ATP) and 1 μM substrate peptide (biotin-Ahx-EPKDDAYPLYSDFG-NH2) with different concentrations of test compounds (0 μM and concentrations in the range 0.001-20 μM) in 5 μl assay buffer [50 mM Hepes/NaOH pH 7, 10 mM MgCl2, 0.5 mM MnCl2, 1.0 mM dithiothreitol, 0.01% NP40, protease inhibitor mixture (“Complete w/o EDTA” from Roche, 1 tablet per 2.5 ml), 1% (v/v) dimethylsulfoxide]. The reaction was stopped by the addition of 5 μl of an aqueous buffer (25 mM Hepes/NaOH pH 7.5, 0.28% (w/v) bovine serum albumin) containing EDTA (90 mM) and the HTRF (Homogeneous Time Resolved Fluorescence) detection reagents streptavidine-XLent (0.2 μM, from Cis Biointernational, Marcoule, France) and PT66-Eu-Chelate (0.3 ng/μl; a europium-chelate labelled anti-phospho-tyrosine antibody from Perkin Elmer).
The resulting mixture was incubated 1 h at 22° C. to allow the binding of the biotinylated phosphorylated peptide to the streptavidine-XLent and the PT66-Eu-Chelate. Subsequently the amount of phosphorylated substrate peptide was evaluated by measurement of the resonance energy transfer from the PT66-Eu-Chelate to the streptavidine-XLent. Therefore, the fluorescence emissions at 620 nm and 665 nm after excitation at 350 nm was measured in a HTRF reader, e.g. a Rubystar (BMG Labtechnologies, Offenburg, Germany) or a Viewlux (Perkin-Elmer). The ratio of the emissions at 665 nm and at […] was taken as the measure for the amount of phosphorylated substrate peptide. The data were normalised (enzyme reaction without inhibitor=0% inhibition, all other assay components but no enzyme=100% inhibition) and IC50 values were calculated by a 4 parameter fit using an inhouse software.

Tie2, sequence (Q02763 770-1124 limits assumed): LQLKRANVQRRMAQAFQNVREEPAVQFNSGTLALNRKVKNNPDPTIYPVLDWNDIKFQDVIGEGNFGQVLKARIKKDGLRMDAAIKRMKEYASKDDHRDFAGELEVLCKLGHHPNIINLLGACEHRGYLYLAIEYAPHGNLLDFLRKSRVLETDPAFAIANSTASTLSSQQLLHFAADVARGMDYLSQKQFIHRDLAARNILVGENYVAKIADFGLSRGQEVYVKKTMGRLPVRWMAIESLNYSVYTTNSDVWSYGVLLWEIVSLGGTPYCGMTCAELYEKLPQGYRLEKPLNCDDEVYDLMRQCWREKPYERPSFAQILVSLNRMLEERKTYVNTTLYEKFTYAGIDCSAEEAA

Row | SMILES | IC50
1 | CN1CCC(Oc2ccc(NC(=O)Nc3ccc(-c4ccnc5c4cnn5C)cc3)cc2C(F)(F)F)CC1 [1.23, 1-[4-(1-Methyl-piperidin-4-yloxy)-3-trifluoromethyl-phenyl]-3-[4-(1-methyl-1H-pyrazolo[3,4-b]pyridin-4-yl)-phenyl]-urea] | < 501 nM
2 | Cn1ncc2c(-c3ccc(NC(=O)Nc4cccc(C(F)(F)F)c4)cc3)cc(C3CCCCC3)nc21 [1.38, 1-[4-(6-Cyclohexyl-1-methyl-1H-pyrazolo[3,4-b]pyridin-4-yl)-phenyl]-3-(3-trifluoromethyl-phenyl)-urea] | < 501 nM
3 | Cc1cc(-c2ccc(NC(=O)Nc3cc(F)cc(C(F)(F)F)c3)cc2)c2cnn(C)c2n1 [2.4, 1-[4-(1,6-Dimethyl-1H-pyrazolo[3,4-b]pyridin-4-yl)-phenyl]-3-(3-fluoro-5-trifluoromethyl-phenyl)-urea] | < 501 nM
4 | Cc1ccc(F)c(NC(=O)Nc2ccc(-c3ccnc4[nH]ncc34)cc2)c1 [1.22, 1-(2-Fluoro-5-methyl-phenyl)-3-[4-(1H-pyrazolo[3,4-b]pyridin-4-yl)-phenyl]-urea] | 501 to 1000 nM
5 | CC(C)c1cc(-c2ccc(NC(=O)Nc3cccc(C(F)(F)F)c3)cc2)c2cn[nH]c2n1 [1.2, 1-[4-(6-Isopropyl-1H-pyrazolo[3,4-b]pyridin-4-yl)-phenyl]-3-(3-trifluoromethyl-phenyl)-urea] | < 501 nM
6 | CN1CCN(Cc2ccc(NC(=O)Nc3ccc(-c4cc(C(C)(C)C)nc5[nH]ncc45)cc3)cc2C(F)(F)F)CC1 [1.15, 1-[4-(6-tert-Butyl-1H-pyrazolo[3,4-b]pyridin-4-yl)-phenyl]-3-[4-(4-methyl-piperazin-1-ylmethyl)-3-trifluoromethyl-phenyl]-urea] | < 501 nM
7 | Cn1ncc2c(-c3ccc(NC(=O)Nc4cccc(C(F)(F)F)c4)cc3)cc(C3CCC3)nc21 [1.37, 1-[4-(6-Cyclobutyl-1-methyl-1H-pyrazolo[3,4-b]pyridin-4-yl)-phenyl]-3-(3-trifluoromethyl-phenyl)-urea] | < 501 nM
8 | Cc1cc(-c2ccc(NC(=O)Nc3cccc(C(F)(F)F)c3)cc2)c2cn[nH]c2n1 [1.18, 1-[4-(6-Methyl-1H-pyrazolo[3,4-b]pyridin-4-yl)-phenyl]-3-(3-trifluoromethyl-phenyl)-urea] | < 501 nM
9 | Cc1ccc(F)c(NC(=O)Nc2ccc(-c3cc(C4(C(=O)N(C)C)CC4)nc4c3cnn4C)cc2)c1 [1.29, 1-(4-{4-[3-(2-Fluoro-5-methyl-phenyl)-ureido]-phenyl}-1-methyl-1H-pyrazolo[3,4-b]pyridin-6-yl)-cyclopropane-carboxylic acid dimethylamide] | < 501 nM
10 | CCc1cccc(NC(=O)Nc2ccc(-c3cc(CN4CCOCC4)nc4c3cnn4C)cc2)c1 [3.4, 1-(3-Ethyl-phenyl)-3-[4-(1-methyl-6-morpholin-4-ylmethyl-1H-pyrazolo[3,4-b]pyridin-4-yl)-phenyl]-urea] | < 501 nM
11 | Cc1ccc(F)c(NC(=O)Nc2ccc(-c3cc(CN4CCOCC4)nc4c3cnn4C)cc2)c1 [3.5, 1-(2-Fluoro-5-methyl-phenyl)-3-[4-(1-methyl-6-morpholin-4-ylmethyl-1H-pyrazolo[3,4-b]pyridin-4-yl)-phenyl]-urea] | < 501 nM
12 | Cn1ncc2c(-c3ccc(NC(=O)Nc4cccc(C(F)(F)F)c4)cc3)cc(CN3CCOCC3)nc21 [3.2, 1-[4-(1-Methyl-6-morpholin-4-ylmethyl-1H-pyrazolo[3,4-b]pyridin-4-yl)-phenyl]-3-(3-trifluoromethyl-phenyl)-urea] | < 501 nM
13 | CN(C)C(=O)C1(c2cc(-c3ccc(NC(=O)Nc4cccc(C(F)(F)F)c4)cc3)c3cnn(C)c3n2)CC1 [1.26, 1-(1-Methyl-4-{4-[3-(3-trifluoromethyl-phenyl)-ureido]-phenyl}-1H-pyrazolo[3,4-b]pyridin-6-yl)-cyclopropane-carboxylic acid dimethylamide] | < 501 nM
14 | Cc1cc(-c2ccc(NC(=O)Nc3ccc(F)c(C(F)(F)F)c3)cc2)c2cnn(C)c2n1 [2.5, 1-[4-(1,6-Dimethyl-1H-pyrazolo[3,4-b]pyridin-4-yl)-phenyl]-3-(4-fluoro-3-trifluoromethyl-phenyl)-urea] | 501 to 1000 nM
15 | Cn1ncc2c(-c3ccc(NC(=O)Nc4cc(C(F)(F)F)ccc4F)cc3)ccnc21 [1.8, 1-(2-Fluoro-5-trifluoromethyl-phenyl)-3-[4-(1-methyl-1H-pyrazolo[3,4-b]-pyridin-4-yl)-phenyl]-urea] | < 501 nM
16 | CC(C)c1cc(-c2ccc(NC(=O)Nc3cccc(C(F)(F)F)c3)cc2)c2cnn(C)c2n1 [1.3, 1-[4-(6-Isopropyl-1-methyl-1H-pyrazolo[3,4-b]pyridin-4-yl)-phenyl]-3-(3-trifluoromethyl-phenyl)-urea] | < 501 nM
17 | Cn1ncc2c(-c3ccc(NC(=O)Nc4cccc(C(F)(F)F)c4)cc3)ccnc21 [1.4, 1-[4-(1-Methyl-1H-pyrazolo[3,4-b]pyridin-4-yl)-phenyl]-3-(3-trifluoromethyl-phenyl)-urea] | < 501 nM
18 | CN1CCN(Cc2ccc(NC(=O)Nc3ccc(-c4ccnc5c4cnn5C)cc3)cc2C(F)(F)F)CC1 [1.24, 1-[4-(4-Methyl-piperazin-1-ylmethyl)-3-trifluoromethyl-phenyl]-3-[4-(1-methyl-1H-pyrazolo[3,4-b]pyridin-4-yl)-phenyl]-urea] | < 501 nM
19 | COc1ccc(C(F)(F)F)cc1NC(=O)Nc1ccc(-c2cc(C)nc3c2cnn3C)cc1 [2.7, 1-[4-(1,6-Dimethyl-1H-pyrazolo[3,4-b]pyridin-4-yl)-phenyl]-3-(2-methoxy-5-trifluoromethyl-phenyl)-urea] | < 501 nM
20 | CN1CCN(Cc2ccc(NC(=O)Nc3ccc(-c4ccnc5[nH]ncc45)cc3)cc2C(F)(F)F)CC1 [1.33, 1-[4-(4-Methyl-piperazin-1-yl-methyl)-3-trifluoromethyl-phenyl]-3-[4-(1H-pyrazolo[3,4-b]pyridin-4-yl)-phenyl]-urea] | < 501 nM
21 | Cc1ccc(F)c(NC(=O)Nc2ccc(-c3ccnc4c3cnn4C)cc2)c1 [1.7, 1-(2-Fluoro-5-methyl-phenyl)-3-[4-(1-methyl-1H-pyrazolo[3,4-b]pyridin-4-yl)-phenyl]-urea] | < 501 nM
22 | CCc1cccc(NC(=O)Nc2ccc(-c3cc(C(C)(C)C)nc4[nH]ncc34)cc2)c1 [1.1, 1-[4-(6-tert-Butyl-1H-pyrazolo[3,4-b]pyridin-4-yl)-phenyl]-3-(3-ethylphenyl)-urea] | < 501 nM
23 | Cc1cccc(NC(=O)Nc2ccc(-c3cc(C(C)(C)C)nc4[nH]ncc34)cc2)c1 [1.11, 1-[4-(6-tert-Butyl-1H-pyrazolo[3,4-b]pyridin-4-yl)-phenyl]-3-m-tolyl-urea] | 501 to 1000 nM
24 | O=C(Nc1ccc(-c2ccnc3[nH]ncc23)cc1)Nc1cccc(C(F)(F)F)c1 [1.20, 1-[4-(1H-Pyrazolo[3,4-b]pyridin-4-yl)-phenyl]-3-(3-trifluoromethyl-phenyl)-urea] | < 501 nM

Source: patent US7846928B2, “Substituted pyrazolopyridines and salts thereof, pharmaceutical compositions comprising same, methods of preparing same and uses of same” (Bayer Schering Pharma AG, priority 2006, dated 2010)
